Measured values from ChEMBL document CHEMBL1240532, “Spiroindolones, a potent compound class for the treatment of malaria” (Science, 2010).
Active and inactive are the calls of the source. The rule behind the calls is not given here.

Assays:
Plasmodium berghei [1] = assay: Antimalarial activity against Plasmodium berghei GFP ANKA infected in NMRI mice (Mus musculus) assessed as reduction in parasitaemia at 30 mg/kg, perorally administered as single dose 24 hrs post infection for 1 day measured 72 hrs post infection; type: functional; design: scale not given: the % may be the effect or the level left; settings: route oral
Plasmodium falciparum [2] = assay: Antimalarial activity against Plasmodium falciparum 3D7 assessed as parasite growth inhibition at 8 nM after 6 hrs by [3H]hypoxanthin incorporation assay; type: functional
Plasmodium berghei [3] = assay: Antimalarial activity against Plasmodium berghei GFP ANKA infected in NMRI mice (Mus musculus) assessed as reduction in parasitaemia at 10 mg/kg, perorally administered through 7% Tween80/3% Ethanol formulation 24 hrs post infection for 3 days measured 96 hrs post infection; type: functional; design: scale not given: the % may be the effect or the level left; settings: route oral
Plasmodium berghei [4] = assay: Antimalarial activity against Plasmodium berghei GFP ANKA infected in NMRI mice (Mus musculus) assessed as survival at 10 mg/kg, perorally administered through 7% Tween80/3% Ethanol formulation 24 hrs post infection for 3 days measured 96 hrs post infection; type: functional; settings: route oral
Plasmodium berghei [5] = assay: Antimalarial activity against Plasmodium berghei GFP ANKA infected in NMRI mice (Mus musculus) assessed as survival at 30 mg/kg, perorally administered as single dose 24 hrs post infection for 1 day measured 72 hrs post infection; type: functional; settings: route oral
Plasmodium berghei [6] = assay: Antimalarial activity against Plasmodium berghei GFP ANKA infected in NMRI mice (Mus musculus) assessed as survival at 10 mg/kg, perorally administered as single dose as single dose 24 hrs post infection for 1 day measured 72 hrs post infection; type: functional; settings: route oral
Plasmodium berghei [7] = assay: Antimalarial activity against Plasmodium berghei GFP ANKA infected in NMRI mice (Mus musculus) assessed as reduction in parasitaemia at 10 mg/kg, perorally administered as single dose 24 hrs post infection for 1 day measured 72 hrs post infection; type: functional; design: scale not given: the % may be the effect or the level left; settings: route oral
Plasmodium berghei [8] = assay: Antimalarial activity against Plasmodium berghei GFP ANKA infected in NMRI mice (Mus musculus) assessed as survival at 100 mg/kg, perorally administered as single dose 24 hrs post infection for 1 day measured 72 hrs post infection; type: functional; settings: route oral
Plasmodium falciparum [9] = assay: Antimalarial activity against NITD609-resistant Plasmodium falciparum Dd2 Clone2 bearing P-type ATPase4 T418N and P990R mutations after 72 hrs by SYBR green based fluorescence assay; type: functional, organism-based; settings: Dd2, 72 h
Plasmodium falciparum [10] = assay: Antimalarial activity against Plasmodium falciparum assessed as […] by SYBR green based fluorescence assay; type: functional, organism-based; settings: for IC50: Plasmodium falciparum
Plasmodium falciparum [11] = assay: Antimalarial activity against NITD609-resistant Plasmodium falciparum Dd2 Clone1 bearing P-type ATPase4 I398F and P990R mutations after 72 hrs by SYBR green based fluorescence assay; type: functional, organism-based; settings: Dd2, 72 h
Plasmodium falciparum [12] = type: functional, organism-based; settings: Dd2, 72 h
Plasmodium falciparum [13] = assay: Inhibition of protein synthesis in NITD609-resistant Plasmodium falciparum Dd2 Clone3 within 1 hrs by [35S]Met/Cys incorporation assay; type: functional
Plasmodium falciparum [14] = assay: Inhibition of protein synthesis in NITD609-resistant Plasmodium falciparum Dd2 Clone1 within 1 hrs by [35S]Met/Cys incorporation assay; type: functional
Plasmodium falciparum [15] = assay: Antimalarial activity against Plasmodium falciparum Dd2 after 72 hrs by SYBR green based fluorescence assay; type: functional, organism-based; settings: Dd2, 72 h
Plasmodium falciparum [16] = assay: microbe, parasite or virus in culture; settings: Dd2, 72 h
Description: Antimalarial activity against Plasmodium falciparum Dd2 containing attB site inserted in parasite genome and using EF1-alpha promoter driven expressing ATP4 I398F/P990R mutant after 72 hrs by SYBR green based fluorescence assay

Plasmodium falciparum [17] = assay: microbe, parasite or virus in culture; settings: Dd2, 72 h; remark: listed apart in the source
Description: Antimalarial activity against Plasmodium falciparum Dd2 containing attB site inserted in parasite genome and using CAM promoter driven expressing ATP4 I398F/P990R mutant after 72 hrs by SYBR green based fluorescence assay

Plasmodium falciparum [18] = assay: microbe, parasite or virus in culture; settings: Dd2, 72 h; remark: listed apart in the source
Description: Antimalarial activity against Plasmodium falciparum Dd2 containing attB site inserted in parasite genome and using EF1-alpha promoter driven expressing ATP4 D1247Y mutant after 72 hrs by SYBR green based fluorescence assay

Plasmodium falciparum [19] = assay: microbe, parasite or virus in culture; settings: Dd2, 72 h; remark: listed apart in the source
Description: Antimalarial activity against Plasmodium falciparum Dd2 containing attB site inserted in parasite genome and using CAM promoter driven expressing ATP4 D1247Y mutant after 72 hrs by SYBR green based fluorescence assay

Plasmodium falciparum [20] = assay: microbe, parasite or virus in culture; settings: Dd2, 72 h; remark: listed apart in the source
Description: Antimalarial activity against Plasmodium falciparum Dd2 containing attB site inserted in parasite genome and using EF1-alpha promoter driven expressing wild type ATP4 after 72 hrs by SYBR green based fluorescence assay

Plasmodium falciparum [21] = assay: microbe, parasite or virus in culture; settings: Dd2, 72 h; remark: listed apart in the source
Description: Antimalarial activity against Plasmodium falciparum Dd2 containing attB site inserted in parasite genome and expressing parental ATP4 after 72 hrs by SYBR green based fluorescence assay

Plasmodium berghei [22] = assay: Antimalarial activity against Plasmodium berghei GFP ANKA infected in NMRI mice (Mus musculus) assessed as reduction in parasitaemia dosed in ETPGS formulation 1 day post infection measured 72 hrs post infection; type: functional
Plasmodium berghei [23] = assay: Antimalarial activity against Plasmodium berghei GFP ANKA infected in NMRI mice (Mus musculus) assessed as reduction in parasitaemia at 30 mg/kg, perorally administered through 7% Tween80/3% Ethanol formulation 24 hrs post infection for 3 days measured 96 hrs post infection; type: functional; design: scale not given: the % may be the effect or the level left; settings: route oral
Plasmodium berghei [24] = assay: Antimalarial activity against Plasmodium berghei GFP ANKA infected in NMRI mice (Mus musculus) assessed as reduction in parasitaemia dosed in 7% Tween80/3% ethanol formulation 1 day post infection measured 72 hrs post infection; type: functional
Plasmodium berghei [25] = assay: Antimalarial activity against Plasmodium berghei GFP ANKA infected in NMRI mice (Mus musculus) assessed as survival at 30 mg/kg, perorally administered through 7% Tween80/3% Ethanol formulation 24 hrs post infection for 3 days measured 96 hrs post infection; type: functional; settings: route oral
Plasmodium berghei [26] = assay: Antimalarial activity against Plasmodium berghei GFP ANKA infected in NMRI mice (Mus musculus) assessed as reduction in parasitaemia at 100 mg/kg, perorally administered as single dose 24 hrs post infection for 1 day measured 72 hrs post infection; type: functional; design: scale not given: the % may be the effect or the level left; settings: route oral

SMILES: CO[C@H]1O[C@@H]2O[C@@]3(C)CC[C@H]4[C@H](C)CC[C@@H]([C@H]1C)[C@@]24OO3
- Activity (Plasmodium berghei [1]): 97%
- inhibition at 0.008 µM (Plasmodium falciparum [2]): > 90%
- Activity (Plasmodium berghei [3]): 99.7%
- Survival (Plasmodium berghei [4]): 13.2 days
- Survival (Plasmodium berghei [5]): 6.9 days
- mean survival time at 10 mg/kg (Plasmodium berghei [6]): 6.2 days
- Activity (Plasmodium berghei [7]): 81%
- Survival (Plasmodium berghei [8]): >7.6 days

SMILES: COc1ccc(C[C@H]2NC[C@H](O)[C@H]2OC(C)=O)cc1 [ANISOMYCIN]
- IC50 (Plasmodium falciparum [9]): 0.0092 µM
- IC50 (Plasmodium falciparum [10]): 0.025 µM
- IC50 (Plasmodium falciparum [11]): 0.0058 µM
- IC50 (Plasmodium falciparum [12]; read-out: IC50): 0.0064 µM
- inhibition (Plasmodium falciparum [13]): Active
- inhibition (Plasmodium falciparum [14]): Active
- IC50 (Plasmodium falciparum [15]): 0.0091 µM

SMILES: C[C@@H]1CC[C@H]2[C@@H](C)C(=O)O[C@@H]3O[C@@]4(C)CC[C@@H]1[C@]32OO4 [ARTEMISININ]
- IC50 (Plasmodium falciparum [16]): 0.0173 µM
- IC50 (Plasmodium falciparum [9]): 0.018 µM
- inhibition (INH) (Plasmodium falciparum [10]): <25%
- IC50 (Plasmodium falciparum [10]): 0.015 µM
- IC50 (Plasmodium falciparum [17]): 0.018 µM
- IC50 (Plasmodium falciparum [11]): 0.013 µM
- IC50 (Plasmodium falciparum [18]): 0.0198 µM
- IC50 (Plasmodium falciparum [19]): 0.0163 µM
- IC50 (Plasmodium falciparum [12]; read-out: IC50): 0.016 µM
- IC50 (Plasmodium falciparum [20]): 0.0172 µM
- IC50 (Plasmodium falciparum [21]): 0.0154 µM

SMILES: C[C@H]1[C@H](OC(=O)CCC(=O)O)O[C@@H]2O[C@@]3(C)CC[C@H]4[C@H](C)CC[C@@H]1[C@@]24OO3 [ARTESUNATE]
- Activity (Plasmodium berghei [1]): 89%
- ED50 (Plasmodium berghei [22]): 6.2 mg/kg
- Activity (Plasmodium berghei [3]): 92%
- Survival (Plasmodium berghei [4]): 6.5 days
- mean survival time at 10 mg/kg (Plasmodium berghei [6]): 7.3 days
- Activity (Plasmodium berghei [7]): 70%
- Activity (Plasmodium berghei [23]): 98%
- Survival (Plasmodium berghei [8]): 6.7 days
- ED99 (Plasmodium berghei [24]): 135 mg/kg
- Survival (Plasmodium berghei [25]): 7.2 days

SMILES: O=C1C(O)=C([C@H]2CC[C@H](c3ccc(Cl)cc3)CC2)C(=O)c2ccccc21 [ATOVAQUONE]
- IC50 (Plasmodium falciparum [9]): 0.0008 µM
- IC50 (Plasmodium falciparum [11]): 0.0006 µM
- IC50 (Plasmodium falciparum [12]; read-out: IC50): 0.0006 µM
- IC50 (Plasmodium falciparum [15]): 0.0008 µM

SMILES: CCN(CC)CCCC(C)Nc1ccnc2cc(Cl)ccc12 (configuration not stated) [CHLOROQUINE]
- ED50 (Plasmodium berghei [22]): 1.9 mg/kg
- Activity (Plasmodium berghei [26]): >99.9%
- Survival (Plasmodium berghei [4]): 15.4 days
- Survival (Plasmodium berghei [5]): 8.7 days
- mean survival time at 10 mg/kg (Plasmodium berghei [6]): 8 days
- Activity (Plasmodium berghei [23]): 98.6%
- Survival (Plasmodium berghei [8]): 12 days
- ED99 (Plasmodium berghei [24]): 8.4 mg/kg
- Survival (Plasmodium berghei [25]): 18.8 days

SMILES: C/C=C/[C@H]1O[C@@](O)([C@@H](C)[C@H](O)[C@H](C)[C@H]2OC(=O)/C(OC)=C/C(C)=C/[C@@H](C)[C@@H](O)[C@@H](CC)[C@@H](O)[C@H](C)C/C(C)=C/C=C/[C@@H]2OC)C[C@@H](O[C@H]2C[C@@H](O)[C@H](OC(N)=O)[C@@H](C)O2)[C@@H]1C [CONCANAMYCIN A]
- IC50 (Plasmodium falciparum [9]): 0.008 µM
- IC50 (Plasmodium falciparum [11]): 0.007 µM
- IC50 (Plasmodium falciparum [12]; read-out: IC50): 0.007 µM
- IC50 (Plasmodium falciparum [15]): 0.0045 µM

SMILES: C[C@@H]1C[C@@H]([C@H](O)CC2CC(=O)NC(=O)C2)C(=O)[C@@H](C)C1 [CYCLOHEXIMIDE]
- IC50 (Plasmodium falciparum [9]): 0.31 µM
- IC50 (Plasmodium falciparum [10]): 0.2 µM
- IC50 (Plasmodium falciparum [11]): 0.287 µM
- IC50 (Plasmodium falciparum [12]): 0.301 µM
- inhibition (Plasmodium falciparum [13]): Active
- inhibition (Plasmodium falciparum [14]): Active
- IC50 (Plasmodium falciparum [15]): 0.32 µM

SMILES: CC(=O)C1=C(O)[C@@H]2[C@H]3c4c[nH]c5cccc(c45)C[C@H]3C(C)(C)N2C1=O [CYCLOPIAZONIC ACID]
- IC50 (Plasmodium falciparum [9]): 4.16 µM
- IC50 (Plasmodium falciparum [11]): 3.46 µM
- IC50 (Plasmodium falciparum [12]; read-out: IC50): 3.24 µM
- IC50 (Plasmodium falciparum [15]): 3.42 µM

SMILES: OC(c1cc(C(F)(F)F)nc2c(C(F)(F)F)cccc12)C1CCCCN1 (configuration not stated) [MEFLOQUINE]
- IC50 (Plasmodium falciparum [16]): 0.0141 µM
- IC50 (Plasmodium falciparum [9]): 0.007 µM
- Activity (Plasmodium berghei [1]): 98%
- inhibition (INH) (Plasmodium falciparum [10]): <25%
- ED50 (Plasmodium berghei [22]): 4.2 mg/kg
- IC50 (Plasmodium falciparum [17]): 0.0129 µM
- Activity (Plasmodium berghei [3]): 99.9%
- Activity (Plasmodium berghei [26]): 89%
- IC50 (Plasmodium falciparum [11]): 0.0067 µM
- IC50 (Plasmodium falciparum [18]): 0.0125 µM
- IC50 (Plasmodium falciparum [19]): 0.011 µM
- Survival (Plasmodium berghei [4]): 13.8 days
- Survival (Plasmodium berghei [5]): 18.2 days
- mean survival time at 10 mg/kg (Plasmodium berghei [6]): 15.2 days
- Activity (Plasmodium berghei [7]): 95%
- IC50 (Plasmodium falciparum [12]; read-out: IC50): 0.008 µM
- Activity (Plasmodium berghei [23]): 99.9%
- Survival (Plasmodium berghei [8]): 28 days
- ED99 (Plasmodium berghei [24]): 8.6 mg/kg
- Survival (Plasmodium berghei [25]): 14 days

SMILES: CCc1nc(N)nc(N)c1-c1ccc(Cl)cc1 [PYRIMETHAMINE]
- IC50 (Plasmodium falciparum [9]): > 20 µM
- IC50 (Plasmodium falciparum [11]): > 20 µM
- IC50 (Plasmodium falciparum [12]; read-out: IC50): > 20 µM
- IC50 (Plasmodium falciparum [15]): > 20 µM

SMILES: C/C=C(/C)C(=O)O[C@H]1C(C)=C2[C@H]([C@@H]1OC(=O)CCCCCCC)[C@@](C)(OC(C)=O)C[C@H](OC(=O)CCC)[C@@]1(O)[C@H]2OC(=O)[C@@]1(C)O [THAPSIGARGIN]
- IC50 (Plasmodium falciparum [9]): 1.11 µM
- IC50 (Plasmodium falciparum [11]): 0.813 µM
- IC50 (Plasmodium falciparum [12]; read-out: IC50): 1.05 µM
- IC50 (Plasmodium falciparum [15]): 0.905 µM
